Source: patent US20250145585A1, “HETEROCYCLIC INHIBITORS OF IGF-1R FOR TREATMENT OF DISEASE” (HORIZON THERAPEUTICS IRELAND DAC, priority 2023, published 2025)

Target: T1, IGF-1R (Homo sapiens, UniProt P08069)
T1 construct: expressed in transfected cells
Experiment: Example B-1: IGF-1R Assay (PC3 cells stimulated with IGF1, AlphaLISA on cell lysates)
Format: cell-based
Conditions: compound two hours, IGF1 200 ng/mL for 30 min, read-out: IC50, Biological Activity against IGF-1R (Table B1)
Protocol: 50K PC3 cells were seeded on day 1 in 50 μL of media in 96-well plate and incubated overnight at 37° C., 5% CO2. On day 2, all cells were expected to be at 80-90% confluency. Cells were starved for two hours by changing the media to 90 μL of EMEM serum-free media and incubated for 2 hours. Next, cells were treated with 10 μL of 10× concentrated and 3× serially diluted compounds for two hours. It makes 1× of compounds in 100 μL media. This was followed by stimulation of cells with 11×IGF1 for 30 min in 10 μL of serum-free EMEM media at the final concentration of 200 ng/mL.
The media was removed and replaced by 50 μL of 1× lysis buffer from the AlphaLISA kit (with 1× of cOmplete™ protease inhibitor). The plates were sealed, and cells were allowed to lyse for 10 min in the shaker before storing the plate at −20° C. until used. The AlphaLISA assay with processed cell lysates were performed as described in the protocol. Briefly, 10 μL of the undiluted sample were loaded to 384 well Optiplates and 5 μL of the acceptor mix (as described in the AlphaLISA kit) was added to each well. The plates were sealed and briefly vortexed followed by the incubation at RT for 3 hours. In the dark, 5 μL of donor mix was added to each well. All plates were sealed and stored at RT overnight. The plates were read in EnVision reader using standard AlphaLISA settings.
Compound activity was analyzed using CBIS data analysis suite (Cheminnovation, CA). Percentage inhibition was calculated using the following formula: % I-hibition=100%×(1−(mea−RLU of test sample−mean RLU of vehicle control)/(mean-RLU of EC80 control−mean RLU of vehicle control)). The activity for representative examples of the invention is shown in the following table, wherein A: IC50≤500 nM; B: 500 nM<IC50≤2 μM; C: 2 μM<IC50≤10 μM; D: IC50>10 μM.

T1 sequence (P08069 31-1367): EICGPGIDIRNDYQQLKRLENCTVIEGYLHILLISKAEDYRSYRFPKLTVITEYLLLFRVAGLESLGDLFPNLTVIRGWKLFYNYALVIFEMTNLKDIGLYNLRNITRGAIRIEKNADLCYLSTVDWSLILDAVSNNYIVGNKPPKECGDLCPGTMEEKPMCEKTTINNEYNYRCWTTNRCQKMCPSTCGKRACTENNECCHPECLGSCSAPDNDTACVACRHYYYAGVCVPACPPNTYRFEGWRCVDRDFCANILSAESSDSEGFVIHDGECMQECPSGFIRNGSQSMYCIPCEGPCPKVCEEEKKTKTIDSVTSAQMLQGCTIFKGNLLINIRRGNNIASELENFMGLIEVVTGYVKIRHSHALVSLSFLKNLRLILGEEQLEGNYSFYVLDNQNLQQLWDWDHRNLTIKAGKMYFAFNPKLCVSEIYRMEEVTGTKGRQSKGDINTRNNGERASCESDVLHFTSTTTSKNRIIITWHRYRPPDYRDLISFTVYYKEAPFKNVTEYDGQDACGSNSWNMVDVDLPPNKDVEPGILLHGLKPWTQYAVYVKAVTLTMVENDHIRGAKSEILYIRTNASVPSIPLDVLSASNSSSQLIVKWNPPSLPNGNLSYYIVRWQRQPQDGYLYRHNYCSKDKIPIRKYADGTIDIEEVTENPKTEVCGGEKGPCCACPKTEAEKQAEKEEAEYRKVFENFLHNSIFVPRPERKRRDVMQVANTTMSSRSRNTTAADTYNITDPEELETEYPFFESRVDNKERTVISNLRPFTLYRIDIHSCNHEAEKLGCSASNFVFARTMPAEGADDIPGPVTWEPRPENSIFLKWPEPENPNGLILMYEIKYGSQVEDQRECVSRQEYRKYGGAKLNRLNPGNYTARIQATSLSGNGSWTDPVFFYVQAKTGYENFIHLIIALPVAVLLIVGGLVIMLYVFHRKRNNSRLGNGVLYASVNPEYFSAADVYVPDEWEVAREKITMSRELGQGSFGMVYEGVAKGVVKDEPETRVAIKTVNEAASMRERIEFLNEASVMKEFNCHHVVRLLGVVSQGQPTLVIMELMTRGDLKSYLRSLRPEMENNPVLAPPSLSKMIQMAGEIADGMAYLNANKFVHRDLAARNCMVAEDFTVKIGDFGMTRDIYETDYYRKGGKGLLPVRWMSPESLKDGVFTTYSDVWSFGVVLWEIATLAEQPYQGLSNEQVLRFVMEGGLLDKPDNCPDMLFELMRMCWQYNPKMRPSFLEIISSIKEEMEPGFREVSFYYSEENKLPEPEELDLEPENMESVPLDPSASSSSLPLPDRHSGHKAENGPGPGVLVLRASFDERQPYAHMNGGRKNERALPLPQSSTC

Compound	IC50
CC(C)Nc1cc(CN2C(=O)N(c3ccc([C@H]4C[C@@H]4F)cc3)C(=O)C2(C)C)ccn1 [Compound 96, 3-(4-((1R,2S)-2-fluorocyclopropyl)phenyl)-1-((2-(isopropylamino)pyridin-4-yl)methyl)-5,5-dimethylimidazolidine-2,4-dione]	500 to 2000 nM
CC(C)Nc1cc(CN2C(=O)N(c3ccc(C4(F)CC4)cc3)C(=O)C2(C)C)ccn1 [Compound 99, 3-(4-(1-fluorocyclopropyl)phenyl)-1-((2-(isopropylamino)pyridin-4-yl)methyl)-5,5-dimethylimidazolidine-2,4-dione]	500 to 2000 nM
CC1(C)C(=O)N(c2ccc(C3(CO)CC3)cc2)C(=O)N1Cc1ccnc(N)c1 [Compound 100, 1-((2-aminopyridin-4-yl)methyl)-3-(4-(1-(hydroxymethyl)cyclopropyl)phenyl)-5,5-dimethylimidazolidine-2,4-dione]	500 to 2000 nM
CC(C)Nc1cc(CN2C(=O)N(c3ccc(C4(C)CCC4)cc3)C(=O)C2(C)C)ccn1 [Compound 101, 1-((2-(isopropylamino)pyridin-4-yl)methyl)-5,5-dimethyl-3-(4-(1-methylcyclobutyl)phenyl)imidazolidine-2,4-dione]	≤ 500 nM
CC(C)Nc1cc(CN2C(=O)N(c3ccc(C4CC(F)(F)C4)cc3)C(=O)C2(C)C)ccn1 [Compound 102, 3-(4-(3,3-difluorocyclobutyl)phenyl)-1-((2-(isopropylamino)pyridin-4-yl)methyl)-5,5-dimethylimidazolidine-2,4-dione]	500 to 2000 nM
CC1(C)C(=O)N(c2ccc(C3(C(F)(F)F)CC3)cc2)C(=O)N1Cc1ccnc(NCC(F)F)c1 [Compound 103, 1-((2-((2,2-difluoroethyl)amino)pyridin-4-yl)methyl)-5,5-dimethyl-3-(4-(1-(trifluoromethyl)cyclopropyl)phenyl) imidazolidine-2,4-dione]	≤ 500 nM
COC[C@H](C)Nc1cc(CN2C(=O)N(c3ccc(C4(C(F)(F)F)CC4)cc3)C(=O)C2(C)C)ccn1 [Compound 105, (S)-1-((2-((1-methoxypropan-2-yl)amino)pyridin-4-yl)methyl)-5,5-dimethyl-3-(4-(1-(trifluoromethyl)cyclopropyl)phenyl) imidazolidine-2,4-dione]	≤ 500 nM
CC(C)Nc1cc(CN2C(=O)N(c3ccc(C4CC4(C)C)cc3)C(=O)C2(C)C)ccn1 (stereo not drawn) [Compound 108, 3-(4-(2,2-dimethylcyclopropyl)phenyl)-1-((2-(isopropylamino)pyridin-4-yl)methyl)-5,5-dimethylimidazolidine-2,4-dione]	≤ 500 nM
CC(C)Nc1cc(CN2C(=O)N(c3ccc(C45CC(C)(C4)C5)cc3)C(=O)C2(C)C)ccn1 [Compound 112, 1-((2-(isopropylamino)pyridin-4-yl)methyl)-5,5-dimethyl-3-(4-(3-methylbicyclo[1.1.1]pentan-1-yl)phenyl)imidazolidine-2,4-dione]	2000 to 10000 nM
CC1(C)CC(Nc2cc(CN3C(=O)N(c4ccc(C5(C(F)(F)F)CC5)cc4)C(=O)C3(C)C)ccn2)CCO1 (stereo not drawn) [Compound 113, 1-((2-((2,2-dimethyltetrahydro-2H-pyran-4-yl)amino)pyridin-4-yl)methyl)-5,5-dimethyl-3-(4-(1-(trifluoromethyl)cyclopropyl)phenyl) imidazolidine-2,4-dione]	≤ 500 nM
CC(C)Nc1cc(CN2C(=O)N(c3ccc(C4(C(F)(F)F)CCC4)cc3)C(=O)C2(C)C)ccn1 [Compound 115, 1-((2-(isopropylamino)pyridin-4-yl)methyl)-5,5-dimethyl-3-(4-(1-(trifluoromethyl)cyclobutyl)phenyl) imidazolidine-2,4-dione]	≤ 500 nM
CC(C)Nc1cc(CN2C(=O)N(c3ccc(C4(C)CC(F)(F)C4)cc3)C(=O)C2(C)C)ccn1 [Compound 116, 3-(4-(3,3-difluoro-1-methylcyclobutyl)phenyl)-1-((2-(isopropylamino)pyridin-4-yl)methyl)-5,5-dimethylimidazolidine-2,4-dione]	≤ 500 nM
CC(C)Nc1cc(CN2C(=O)N(c3ccc(C45CC(C4)C5)cc3)C(=O)C2(C)C)ccn1 [Compound 117, 3-(4-(bicyclo[1.1.1]pentan-1-yl)phenyl)-1-((2-(isopropylamino)pyridin-4-yl)methyl)-5,5-dimethylimidazolidine-2,4-dione]	≤ 500 nM
CC(C)Nc1cc(CN2C(=O)N(c3ccc(S(F)(F)(F)(F)F)cc3)C(=O)C2(C)C)ccn1 [Compound 178, 1-((2-(isopropylamino)pyridin-4-yl)methyl)-5,5-dimethyl-3-(4-(pentafluoro-16-sulfanyl)phenyl)imidazolidine-2,4-dione]	≤ 500 nM
CC1(C)C(=O)N(c2ccc(S(F)(F)(F)(F)F)cc2)C(=O)N1Cc1ccnc(N)c1 [Compound 179, 1-((2-aminopyridin-4-yl)methyl)-5,5-dimethyl-3-(4-(pentafluoro-16-sulfanyl)phenyl)imidazolidine-2,4-dione]	≤ 500 nM
CC1(C)C(=O)N(c2ccc3c(C(F)(F)F)n[nH]c3c2)C(=O)N1Cc1ccnc(N)c1 [Compound 254, 1-((2-aminopyridin-4-yl)methyl)-5,5-dimethyl-3-(3-(trifluoromethyl)-1H-indazol-6-yl)imidazolidine-2,4-dione]	500 to 2000 nM
CCc1cn(C)c2cc(N3C(=O)N(Cc4ccnc(NC(C)C)c4)C(C)(C)C3=O)ccc12 [Compound 257, 3-(3-ethyl-1-methyl-1H-indol-6-yl)-1-((2-(isopropylamino)pyridin-4-yl)methyl)-5,5-dimethylimidazolidine-2,4-dione]	500 to 2000 nM
CC(C)Nc1cc(CN2C(=O)N(c3ccc(C(C)(C)C)cc3)C(=O)C2(C)C)ccn1 [Compound 263, 3-(4-(tert-butyl)phenyl)-1-((2-(isopropylamino)pyridin-4-yl)methyl)-5,5-dimethylimidazolidine-2,4-dione]	≤ 500 nM
COCC(C)Nc1cc(CN2C(=O)N(c3ccc(C(C)(C)C)cc3)C(=O)C2(C)C)ccn1 (stereo not drawn) [Compound 265, 3-(4-(tert-butyl)phenyl)-1-((2-((1-methoxypropan-2-yl)amino)pyridin-4-yl)methyl)-5,5-dimethylimidazolidine-2,4-dione]	≤ 500 nM
CC(C)(C)c1ccc(N2C(=O)N(Cc3ccnc(NC4CCOCC4)c3)C(C)(C)C2=O)cc1 [Compound 266, 3-(4-(tert-butyl)phenyl)-5,5-dimethyl-1-((2-((tetrahydro-2H-pyran-4-yl)amino)pyridin-4-yl)methyl)imidazolidine-2,4-dione]	≤ 500 nM
COC[C@@H](C)Nc1cc(CN2C(=O)N(c3ccc(C(C)(C)C)cc3)C(=O)C2(C)C)ccn1 [Compound 268, (R)-3-(4-(tert-butyl)phenyl)-1-((2-((1-methoxypropan-2-yl)amino)pyridin-4-yl)methyl)-5,5-dimethylimidazolidine-2,4-dione]	≤ 500 nM
COC[C@H](C)Nc1cc(CN2C(=O)N(c3ccc(C(C)(C)C)cc3)C(=O)C2(C)C)ccn1 [Compound 269, (S)-3-(4-(tert-butyl)phenyl)-1-((2-((1-methoxypropan-2-yl)amino)pyridin-4-yl)methyl)-5,5-dimethylimidazolidine-2,4-dione]	≤ 500 nM
CC(C)(C)c1ccc(N2C(=O)N(Cc3ccnc(NC4CC(F)(F)C4)c3)C(C)(C)C2=O)cc1 [Compound 270, 3-(4-(tert-butyl)phenyl)-1-((2-((3,3-difluorocyclobutyl)amino)pyridin-4-yl)methyl)-5,5-dimethylimidazolidine-2,4-dione]	≤ 500 nM
CC(C)(C)c1ccc(N2C(=O)N(Cc3ccnc(NC4(CO)CC4)c3)C(C)(C)C2=O)cc1 [Compound 271, 3-(4-(tert-butyl)phenyl)-1-((2-((1-(hydroxymethyl)cyclopropyl)amino)pyridin-4-yl)methyl)-5,5-dimethylimidazolidine-2,4-dione]	500 to 2000 nM
CC1(Nc2cc(CN3C(=O)N(c4ccc(C(C)(C)C)cc4)C(=O)C3(C)C)ccn2)CC1 [Compound 273, 3-(4-(tert-butyl)phenyl)-5,5-dimethyl-1-((2-((1-methylcyclopropyl)amino)pyridin-4-yl)methyl) imidazolidine-2,4-dione]	≤ 500 nM
COCC(C)(C)Nc1cc(CN2C(=O)N(c3ccc(C(C)(C)C)cc3)C(=O)C2(C)C)ccn1 [Compound 274, 3-(4-(tert-butyl)phenyl)-1-((2-((1-methoxy-2-methylpropan-2-yl)amino)pyridin-4-yl)methyl)-5,5-dimethylimidazolidine-2,4-dione]	500 to 2000 nM
CC(C)(C)c1ccc(N2C(=O)N(Cc3ccnc(NC4COC4)c3)C(C)(C)C2=O)cc1 [Compound 275, 3-(4-(tert-butyl)phenyl)-5,5-dimethyl-1-((2-(oxetan-3-ylamino)pyridin-4-yl)methyl)imidazolidine-2,4-dione]	≤ 500 nM
